Measurements: US8940742B2, “Heterocyclic compounds and uses thereof” (Infinity Pharmaceuticals, Inc., priority 2012, dated 2015)

Tests used:
Raw264.7 p110 γ = molecular target: T1, Raw264.7 p110 γ (Mus musculus, UniProt Q9JHG7); test: Raw264.7 p110 γ cellular assay (phospho-AKT); assay type: cell-based; details: serum-starved RAW264.7 cells stimulated with C5a
T1 construct: reduction of phospho-AKT in stimulated RAW 264.7 cells; endogenous in cells; host or cells: RAW264.7 macrophages
Description: (b) PI3K-γ Selective Assay
Briefly, serum-starved PAW264.7 cells are stimulated with a known GPCR agonist C5a. […] Cells can be treated with test compounds prior to, simultaneously with, or subsequent to the stimulation by C5a. RAW 264.7 cells respond to the complement component fragment C5a through activation of the C5a receptor, and the C5a receptor activates macrophages and induces cell migration.

RAJI p110 δ = RAJI p110 δ (Homo sapiens, UniProt O00329); test: RAJI p110 δ cellular assay (phospho-AKT);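 note: potency based on lowered phosphorylated AKT in RAJI cells, as a readout of PI3K-δ dependent B-cell receptor signaling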
Description: (a) PI3K-δ Selective Assay
Reduction of phospho-AKT is indicative of compounds that may inhibit B-cell proliferation and function in certain diseases.

PI3K δ = molecular target: T2, PI3K δ (Homo sapiens, UniProt O00329); test: PI3-Kinase Promega ADP-Glo Max assay; assay type: biochemical; details: 20 nM kinase, 3 mM ATP, 500 uM diC8-PtdInsP
T2 construct: purchased Millipore
Summary of the method: (§1)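 Human class I PI3K (20 nM α or δ, 40 nM β) pre-incubated 15 min with compound in HEPES pH 7.4 buffer with MgCl2, then reacted 2 h at room temperature with 3 mM ATP and 500 uM diC8-PtdInsP. ADP measured by ADP-Glo Max luminescence; % inhibition fitted to 4-parameter logistic for IC50.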

PI3K α = molecular target: T3, PI3K α (Homo sapiens, UniProt P42336); test: PI3-Kinase Promega ADP-Glo Max assay; assay type: biochemical; details: 20 nM kinase, 3 mM ATP, 500 uM diC8-PtdInsP
T3 construct: purchased Millipore
Summary of the method: as §1

PI3K β = molecular target: T4, PI3K β (Homo sapiens, UniProt P42338); test: PI3-Kinase Promega ADP-Glo Max assay; assay type: biochemical; details: 40 nM kinase, 3 mM ATP, 500 uM diC8-PtdInsP
T4 construct: purchased Millipore
Summary of the method: as §1

PI3K γ = molecular target: T5, PI3K γ (Homo sapiens, UniProt P48736); test: PI3-Kinase Promega ADP-Glo Max assay; assay type: biochemical; details: 40 nM kinase, 3 mM ATP, 500 uM diC8-PtdInsP
T5 construct: purchased Millipore
Summary of the method: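 Human class I PI3K reactions ran 2 hours at room temperature, followed by stop solution (40 min) and detection mix (1 hour) before luminescence reading.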

T1 sequence (Q9JHG7 whole entry): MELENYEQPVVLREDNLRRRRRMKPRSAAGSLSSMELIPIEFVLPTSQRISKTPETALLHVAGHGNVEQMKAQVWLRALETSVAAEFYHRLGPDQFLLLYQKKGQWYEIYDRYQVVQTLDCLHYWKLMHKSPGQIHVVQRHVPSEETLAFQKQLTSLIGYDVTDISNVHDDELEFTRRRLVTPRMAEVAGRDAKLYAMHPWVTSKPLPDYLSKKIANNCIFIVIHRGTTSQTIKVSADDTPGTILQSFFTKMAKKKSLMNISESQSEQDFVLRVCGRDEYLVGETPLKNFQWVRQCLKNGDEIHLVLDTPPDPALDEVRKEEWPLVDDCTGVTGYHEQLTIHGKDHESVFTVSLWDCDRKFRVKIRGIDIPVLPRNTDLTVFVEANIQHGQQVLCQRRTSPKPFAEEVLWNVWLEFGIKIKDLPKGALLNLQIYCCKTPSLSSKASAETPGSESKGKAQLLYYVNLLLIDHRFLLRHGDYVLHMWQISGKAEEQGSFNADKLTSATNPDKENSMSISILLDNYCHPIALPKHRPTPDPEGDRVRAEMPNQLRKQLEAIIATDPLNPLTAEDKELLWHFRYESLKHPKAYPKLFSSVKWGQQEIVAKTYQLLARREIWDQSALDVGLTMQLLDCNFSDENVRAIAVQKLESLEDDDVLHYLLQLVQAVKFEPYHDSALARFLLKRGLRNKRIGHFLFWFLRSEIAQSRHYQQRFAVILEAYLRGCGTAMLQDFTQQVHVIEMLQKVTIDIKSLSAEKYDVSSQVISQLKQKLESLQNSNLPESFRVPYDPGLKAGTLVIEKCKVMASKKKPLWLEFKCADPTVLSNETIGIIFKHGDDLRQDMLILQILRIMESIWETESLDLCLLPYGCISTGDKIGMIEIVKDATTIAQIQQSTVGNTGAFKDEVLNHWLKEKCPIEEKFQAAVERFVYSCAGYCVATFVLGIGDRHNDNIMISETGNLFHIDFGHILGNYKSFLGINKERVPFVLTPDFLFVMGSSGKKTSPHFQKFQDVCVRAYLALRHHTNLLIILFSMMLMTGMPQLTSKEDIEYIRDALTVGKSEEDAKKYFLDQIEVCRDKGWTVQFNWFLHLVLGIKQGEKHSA
T3 sequence (P42336 whole entry): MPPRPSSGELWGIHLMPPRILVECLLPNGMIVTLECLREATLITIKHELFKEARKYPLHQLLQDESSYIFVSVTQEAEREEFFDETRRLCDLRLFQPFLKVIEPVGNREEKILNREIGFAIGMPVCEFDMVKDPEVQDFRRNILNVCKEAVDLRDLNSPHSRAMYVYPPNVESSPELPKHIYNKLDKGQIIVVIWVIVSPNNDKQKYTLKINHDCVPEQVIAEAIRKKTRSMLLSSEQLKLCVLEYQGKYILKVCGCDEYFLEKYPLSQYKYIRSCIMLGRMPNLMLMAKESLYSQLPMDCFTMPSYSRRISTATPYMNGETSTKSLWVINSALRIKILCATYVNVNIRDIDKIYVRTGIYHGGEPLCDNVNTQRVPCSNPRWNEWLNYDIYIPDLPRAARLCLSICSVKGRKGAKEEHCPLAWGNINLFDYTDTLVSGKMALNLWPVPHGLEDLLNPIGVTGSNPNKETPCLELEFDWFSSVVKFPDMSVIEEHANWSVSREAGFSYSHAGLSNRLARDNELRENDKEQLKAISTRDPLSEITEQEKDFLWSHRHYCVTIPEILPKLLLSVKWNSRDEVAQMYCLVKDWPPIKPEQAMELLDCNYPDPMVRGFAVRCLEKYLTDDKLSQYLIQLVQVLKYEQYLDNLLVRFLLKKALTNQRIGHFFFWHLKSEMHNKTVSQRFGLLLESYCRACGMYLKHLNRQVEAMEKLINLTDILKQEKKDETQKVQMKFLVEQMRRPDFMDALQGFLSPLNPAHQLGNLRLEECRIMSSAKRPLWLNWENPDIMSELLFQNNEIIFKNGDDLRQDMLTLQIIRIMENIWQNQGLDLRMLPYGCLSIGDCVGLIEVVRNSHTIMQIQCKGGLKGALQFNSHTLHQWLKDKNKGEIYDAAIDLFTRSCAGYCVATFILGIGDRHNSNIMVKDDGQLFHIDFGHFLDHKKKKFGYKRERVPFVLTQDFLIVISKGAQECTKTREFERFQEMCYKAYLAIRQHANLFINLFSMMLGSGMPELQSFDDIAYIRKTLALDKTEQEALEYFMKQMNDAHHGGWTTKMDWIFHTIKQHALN
T3 sequence (P27986 whole entry partner): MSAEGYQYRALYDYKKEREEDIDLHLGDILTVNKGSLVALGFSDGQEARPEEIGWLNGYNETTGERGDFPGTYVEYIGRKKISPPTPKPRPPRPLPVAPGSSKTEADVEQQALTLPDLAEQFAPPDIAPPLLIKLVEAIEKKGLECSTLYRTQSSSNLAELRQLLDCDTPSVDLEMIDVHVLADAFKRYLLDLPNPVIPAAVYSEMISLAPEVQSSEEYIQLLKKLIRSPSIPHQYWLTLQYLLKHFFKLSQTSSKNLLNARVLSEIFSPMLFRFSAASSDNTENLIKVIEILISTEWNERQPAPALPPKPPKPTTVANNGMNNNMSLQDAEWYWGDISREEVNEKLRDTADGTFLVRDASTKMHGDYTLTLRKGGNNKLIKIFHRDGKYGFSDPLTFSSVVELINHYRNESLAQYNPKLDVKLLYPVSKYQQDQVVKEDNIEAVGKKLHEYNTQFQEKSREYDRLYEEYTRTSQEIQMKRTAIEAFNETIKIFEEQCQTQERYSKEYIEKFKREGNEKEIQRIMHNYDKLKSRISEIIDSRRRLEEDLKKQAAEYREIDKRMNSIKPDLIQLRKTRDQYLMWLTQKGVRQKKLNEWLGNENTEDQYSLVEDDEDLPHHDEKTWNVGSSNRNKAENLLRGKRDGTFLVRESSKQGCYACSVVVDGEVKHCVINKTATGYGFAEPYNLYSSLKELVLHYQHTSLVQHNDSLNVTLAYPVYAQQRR
T4 sequence (P42338 whole entry): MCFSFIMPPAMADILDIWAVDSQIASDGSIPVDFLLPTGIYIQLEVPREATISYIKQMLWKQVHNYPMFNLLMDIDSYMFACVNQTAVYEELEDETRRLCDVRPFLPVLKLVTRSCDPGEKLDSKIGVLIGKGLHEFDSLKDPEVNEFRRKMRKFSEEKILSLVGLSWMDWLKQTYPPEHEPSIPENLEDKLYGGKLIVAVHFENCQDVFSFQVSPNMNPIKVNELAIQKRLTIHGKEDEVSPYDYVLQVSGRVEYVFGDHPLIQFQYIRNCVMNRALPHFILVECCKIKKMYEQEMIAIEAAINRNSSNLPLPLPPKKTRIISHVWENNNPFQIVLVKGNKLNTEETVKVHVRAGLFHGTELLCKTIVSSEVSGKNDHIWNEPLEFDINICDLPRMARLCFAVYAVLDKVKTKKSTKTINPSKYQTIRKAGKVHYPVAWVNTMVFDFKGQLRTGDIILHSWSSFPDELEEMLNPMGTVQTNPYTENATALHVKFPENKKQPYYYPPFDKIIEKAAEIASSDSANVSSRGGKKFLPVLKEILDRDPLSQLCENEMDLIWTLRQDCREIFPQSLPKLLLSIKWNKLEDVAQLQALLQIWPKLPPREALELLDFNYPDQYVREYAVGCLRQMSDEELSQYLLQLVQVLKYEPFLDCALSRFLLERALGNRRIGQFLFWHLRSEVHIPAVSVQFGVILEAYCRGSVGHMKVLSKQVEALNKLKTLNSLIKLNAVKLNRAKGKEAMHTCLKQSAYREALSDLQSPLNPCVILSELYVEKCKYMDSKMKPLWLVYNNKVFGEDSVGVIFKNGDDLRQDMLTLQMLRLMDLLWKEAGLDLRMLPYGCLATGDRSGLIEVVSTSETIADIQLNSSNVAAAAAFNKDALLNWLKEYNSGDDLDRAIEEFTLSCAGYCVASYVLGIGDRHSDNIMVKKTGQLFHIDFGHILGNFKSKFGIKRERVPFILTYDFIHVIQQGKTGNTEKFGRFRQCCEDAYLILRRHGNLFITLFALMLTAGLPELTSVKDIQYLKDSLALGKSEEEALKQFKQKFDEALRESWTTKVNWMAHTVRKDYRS
T4 sequence (P27986 whole entry partner): as the sequence (P27986 whole entry partner) above
T2 sequence (O00329 whole entry): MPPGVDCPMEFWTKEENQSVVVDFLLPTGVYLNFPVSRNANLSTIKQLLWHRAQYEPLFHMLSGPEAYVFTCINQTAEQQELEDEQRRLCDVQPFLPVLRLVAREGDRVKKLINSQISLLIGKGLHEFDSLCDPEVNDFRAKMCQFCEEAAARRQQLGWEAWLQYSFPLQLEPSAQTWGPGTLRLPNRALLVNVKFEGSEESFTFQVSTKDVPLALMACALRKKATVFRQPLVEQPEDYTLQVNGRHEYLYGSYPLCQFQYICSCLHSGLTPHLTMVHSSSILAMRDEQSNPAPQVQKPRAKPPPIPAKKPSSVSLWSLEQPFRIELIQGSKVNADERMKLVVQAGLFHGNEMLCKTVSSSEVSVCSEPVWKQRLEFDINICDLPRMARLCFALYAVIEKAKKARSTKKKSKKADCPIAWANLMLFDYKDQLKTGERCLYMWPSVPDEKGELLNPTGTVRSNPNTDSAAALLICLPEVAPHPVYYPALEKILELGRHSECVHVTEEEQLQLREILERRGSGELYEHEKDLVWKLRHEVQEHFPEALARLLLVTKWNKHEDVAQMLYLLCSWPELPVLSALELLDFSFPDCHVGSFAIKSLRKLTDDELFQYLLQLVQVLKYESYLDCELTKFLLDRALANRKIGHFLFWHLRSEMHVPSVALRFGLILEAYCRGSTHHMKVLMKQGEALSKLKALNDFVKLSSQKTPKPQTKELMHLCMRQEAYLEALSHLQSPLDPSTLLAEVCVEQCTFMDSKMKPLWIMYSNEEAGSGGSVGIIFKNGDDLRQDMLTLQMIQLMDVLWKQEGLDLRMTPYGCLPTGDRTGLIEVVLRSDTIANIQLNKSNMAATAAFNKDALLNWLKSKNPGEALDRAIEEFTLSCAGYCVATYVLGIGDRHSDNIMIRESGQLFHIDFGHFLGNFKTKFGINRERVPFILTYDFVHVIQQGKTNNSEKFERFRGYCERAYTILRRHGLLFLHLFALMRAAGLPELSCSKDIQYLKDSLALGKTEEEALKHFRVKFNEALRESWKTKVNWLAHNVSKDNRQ
T2 sequence (P27986 whole entry partner): as the sequence (P27986 whole entry partner) above

Compound	IC50 (Raw264.7 p110 γ) [nM]	IC50 (RAJI p110 δ) [nM]	IC50 (PI3K δ) [nM]	IC50 (PI3K α) [nM]	IC50 (PI3K β) [nM]	IC50 (PI3K γ) [nM]
C[C@H](NC(=O)c1c(N)nn2cccnc12)c1cc2cccc(C#CCNC(=O)c3ccc(C#N)o3)c2c(=O)n1-c1ccccc1 [Compound 164]	< 100	< 100	1000 to 10000	100 to 1000	1000 to 10000	100 to 1000
C[C@H](NC(=O)c1nc(-c2cccc(NS(=O)(=O)C3CC3)c2)cnc1N)c1cc2cccc(Cl)c2c(=O)n1-c1ccccc1 [Compound 102]	< 100	< 100	1000 to 10000	1000 to 10000	100 to 1000	< 100
CC(C)n1c([C@H](C)NC(=O)c2c(N)nn3cccnc23)cc2cccc(Cl)c2c1=O [Compound 73]	< 100	< 100	1000 to 10000	1000 to 10000	100 to 1000	100 to 1000
C[C@H](NC(=O)c1c(N)nn2cccnc12)c1cc2cccc(-c3cncc(NS(C)(=O)=O)c3)c2c(=O)n1-c1ccccc1 [Compound 120]	100 to 1000	< 100	100 to 1000	1000 to 10000	> 10000	100 to 1000
COc1cccc2cc([C@H](C)NC(=O)c3c(N)nn4cccnc34)n(-c3ccccc3)c(=O)c12 [Compound 270]	100 to 1000	100 to 1000	1000 to 10000	> 10000	> 10000	1000 to 10000
C[C@H](NC(=O)c1cncc2cccnc12)c1cc2cccc(Cl)c2c(=O)n1-c1ccc(F)cc1 [Compound 65]	< 100	< 100	1000 to 10000	1000 to 10000	1000 to 10000	1000 to 10000
COc1ccc(-c2cnc(N)c(C(=O)N[C@@H](C)c3cc4cccc(Cl)c4c(=O)n3-c3ccccc3)n2)cc1OC [Compound 93]	< 100	100 to 1000	1000 to 10000	1000 to 10000	1000 to 10000	100 to 1000
Cc1ccn2ncc(C(=O)N[C@@H](C)c3cc4cccc(Cl)c4c(=O)n3-c3ccccc3)c2n1 [Compound 82]	100 to 1000	100 to 1000	1000 to 10000	> 10000	1000 to 10000	1000 to 10000
C[C@H](NC(=O)c1c(N)nn2cccnc12)c1cc2cccc(C3CC3)c2c(=O)n1-c1ccccc1 [Compound 193]	< 100	100 to 1000	1000 to 10000	> 10000	> 10000	1000 to 10000
C[C@H](NC(=O)c1c(N)nn2ccc(-c3cccc(S(C)(=O)=O)c3)nc12)c1cc2cccc(Cl)c2c(=O)n1-c1ccccc1 [Compound 127]	< 100	< 100	< 100	< 100	< 100	< 100
COc1cc(-c2cccc3cc(C(C)NC(=O)c4c(N)nn5cccnc45)c(-c4ccccc4)nc23)ccn1 (stereo not drawn) [Compound 219]	< 100	100 to 1000	> 10000	> 10000	> 10000	1000 to 10000
C[C@H](NC(=O)c1c(N)nn2cccnc12)c1cc2cccc(-c3ccn[nH]3)c2c(=O)n1-c1ccccc1 [Compound 221]	< 100	100 to 1000	1000 to 10000	1000 to 10000	> 10000	100 to 1000
C[C@H](NC(=O)c1nc(-c2cnn(C)c2)cnc1N)c1cc2cccc(Cl)c2c(=O)n1-c1ccccc1 [Compound 109]	< 100	100 to 1000	> 10000	1000 to 10000	1000 to 10000	1000 to 10000
C[C@H](NC(=O)c1nc(-c2cccc(NS(C)(=O)=O)c2)cnc1N)c1cc2cccc(Cl)c2c(=O)n1C [Compound 183]	< 100	< 100	100 to 1000	100 to 1000	< 100	< 100
COc1ccc(-c2cnc(N)c(C(=O)N[C@@H](C)c3cc4cccc(Cl)c4c(=O)n3-c3ccccc3)n2)cc1NS(C)(=O)=O [Compound 101]	< 100	< 100	1000 to 10000	100 to 1000	100 to 1000	< 100
C[C@H](NC(=O)c1nccnc1N)c1cc2cccc(Cl)c2c(=O)n1-c1ccccc1 [Compound 4, (S)-3-amino-N-(1-(8-chloro-1-oxo-2-phenyl-1,2-dihydroisoquinolin-3-yl)ethyl)pyrazine-2-carboxamide]	< 100	< 100	< 100	1000 to 10000	100 to 1000	100 to 1000
C[C@H](NC(=O)c1c(N)ncc2cccnc12)c1cc2cccc(N3CCOCC3)c2c(=O)n1-c1ccccc1 [Compound 214]	< 100	< 100	1000 to 10000	> 10000	> 10000	100 to 1000
C=CC(=O)NCC#Cc1cccc2cc([C@H](C)NC(=O)c3c(N)nn4cccnc34)n(-c3ccccc3)c(=O)c12 [Compound 155]	< 100	< 100	100 to 1000	1000 to 10000	1000 to 10000	< 100
C[C@H](NC(=O)c1c(N)nn2cccnc12)c1cc2cccc(CO)c2c(=O)n1-c1ccccc1 [Compound 228]	< 100	100 to 1000	1000 to 10000	> 10000	1000 to 10000	100 to 1000
C[C@H](NC(=O)c1nc(-c2csc(S(C)(=O)=O)n2)cnc1N)c1cc2cccc(Cl)c2c(=O)n1-c1ccccc1 [Compound 113]	100 to 1000	1000 to 10000	> 10000	> 10000	1000 to 10000	1000 to 10000
CC(C)Oc1ccc(-c2cnc(N)c(C(=O)N[C@@H](C)c3cc4cccc(Cl)c4c(=O)n3-c3ccccc3)n2)cc1 [Compound 106]	100 to 1000	> 10000	> 10000	> 10000	> 10000	1000 to 10000
COc1cc(-c2cccc3cc([C@H](C)NC(=O)c4c(N)nn5cccnc45)n(C)c(=O)c23)ccn1 [Compound 220]	< 100	< 100	1000 to 10000	1000 to 10000	> 10000	1000 to 10000
C[C@H](NC(=O)c1nc(-c2cccc(S(=O)(=O)N3CCCC3)c2)cnc1N)c1cc2cccc(Cl)c2c(=O)n1-c1ccccc1 [Compound 92]	1000 to 10000	1000 to 10000	1000 to 10000	> 10000	1000 to 10000	1000 to 10000
CC(C)Oc1ccc(-c2cnc(N)c(C(=O)N[C@@H](C)c3cc4cccc(Cl)c4c(=O)n3-c3ccccc3)n2)cc1Cl [Compound 88]	1000 to 10000	> 10000	> 10000	> 10000	> 10000	1000 to 10000
